In PubChem BioAssay (NCI):
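96-well plates; 48 h exposure; 5 concentrations. Endpoints by linear interpolation between flanking doses. Not reached: highest tested concentration assigned. GI50 marks 50% less growth. Definition used: TGI = concentration required for complete inhibition of growth.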

How the values were obtained:
Assay in all cases: DTP human tumour cell line panel, 48 h
SR leukemia = system: SR leukemia
DU-145 prostate = system: DU-145 prostate
HT29 colon = system: HT29 colon
A549 NSCLC = system: A549 NSCLC
PC-3 prostate = system: PC-3 prostate
786-0 renal = system: 786-0 renal
HCT-116 colon = system: HCT-116 colon
HOP-62 NSCLC = system: HOP-62 NSCLC
HOP-92 NSCLC = system: HOP-92 NSCLC
MDA-MB-435 = system: MDA-MB-435
SW-620 colon = system: SW-620 colon
OVCAR-8 ovarian = system: OVCAR-8 ovarian
SK-MEL-5 melanoma = system: SK-MEL-5 melanoma
ACHN renal = system: ACHN renal
NCI-H460 lung = system: NCI-H460 lung
COLO 205 colon = system: COLO 205 colon
EKVX NSCLC = system: EKVX NSCLC
SK-MEL-28 melanoma = system: SK-MEL-28 melanoma
NCI/ADR-RES ovarian = system: NCI/ADR-RES ovarian
CCRF-CEM leukemia = system: CCRF-CEM leukemia
OVCAR-4 ovarian = system: OVCAR-4 ovarian
NCI-H226 lung = system: NCI-H226 lung
K-562 leukemia = system: K-562 leukemia
SN12C renal = system: SN12C renal
SK-OV-3 ovarian = system: SK-OV-3 ovarian
SNB-19 CNS = system: SNB-19 CNS
NCI-H522 lung = system: NCI-H522 lung
MOLT-4 leukemia = system: MOLT-4 leukemia
HL-60(TB) leukemia = system: HL-60(TB) leukemia
SF-539 CNS = system: SF-539 CNS
RPMI-8226 leukemia = system: RPMI-8226 leukemia
U251 CNS = system: U251 CNS
HCT-15 colon = system: HCT-15 colon
LOX IMVI melanoma = system: LOX IMVI melanoma
T-47D breast = system: T-47D breast
TK-10 renal = system: TK-10 renal
OVCAR-5 ovarian = system: OVCAR-5 ovarian
MALME-3M melanoma = system: MALME-3M melanoma
SF-268 CNS = system: SF-268 CNS
KM12 colon = system: KM12 colon
CAKI-1 renal = system: CAKI-1 renal
UO-31 renal = system: UO-31 renal
RXF 393 renal = system: RXF 393 renal
NCI-H23 lung = system: NCI-H23 lung
HS 578T breast = system: HS 578T breast
HCC-2998 colon = system: HCC-2998 colon
OVCAR-3 ovarian = system: OVCAR-3 ovarian
UACC-62 melanoma = system: UACC-62 melanoma
A498 renal = system: A498 renal
SF-295 CNS = system: SF-295 CNS
BT-549 breast = system: BT-549 breast
SNB-75 CNS = system: SNB-75 CNS
MCF7 breast = system: MCF7 breast
SK-MEL-2 melanoma = system: SK-MEL-2 melanoma
IGROV1 ovarian = system: IGROV1 ovarian
UACC-257 melanoma = system: UACC-257 melanoma
MDA-MB-231 breast = system: MDA-MB-231 breast

## CCN(CC)c1ccc2c(cc1=O)[C@@H](NC(C)=O)CCc1cc(OC)c(OC)c(OC)c1-2
SR leukemia
  GI50: 52.9 nM
  TGI: > 100000 nM
DU-145 prostate
  GI50: 368 nM
HT29 colon
  GI50: 331 nM
A549 NSCLC
  GI50: 744 nM
  TGI: > 100000 nM
PC-3 prostate
  GI50: 366 nM
  TGI: > 100000 nM
786-0 renal
  GI50: 622 nM
  TGI: > 100000 nM
HCT-116 colon
  GI50: 205 nM
  TGI: > 100000 nM
HOP-62 NSCLC
  GI50: 563 nM
  TGI: > 100000 nM
HOP-92 NSCLC
  GI50: 7110 nM
  TGI: > 100000 nM
MDA-MB-435
  GI50: 59.4 nM
  TGI: 305 nM
SW-620 colon
  GI50: 287 nM
  TGI: > 100000 nM
OVCAR-8 ovarian
  GI50: 467 nM
  TGI: > 100000 nM
SK-MEL-5 melanoma
  GI50: 302 nM
  TGI: 1560 nM
ACHN renal
  GI50: 2620 nM
  TGI: > 100000 nM
NCI-H460 lung
  GI50: 359 nM
  TGI: > 100000 nM
COLO 205 colon
  GI50: 101 nM
  TGI: 500 nM
EKVX NSCLC
  GI50: 714 nM
  TGI: > 100000 nM
SK-MEL-28 melanoma
  GI50: > 100000 nM
  TGI: > 100000 nM
NCI/ADR-RES ovarian
  GI50: 14300 nM
  TGI: > 100000 nM
CCRF-CEM leukemia
  GI50: 213 nM
  TGI: > 100000 nM
OVCAR-4 ovarian
  GI50: 3320 nM
  TGI: > 100000 nM
NCI-H226 lung
  GI50: 409 nM
  TGI: > 100000 nM
K-562 leukemia
  GI50: 224 nM
  TGI: > 100000 nM
SN12C renal
  GI50: 691 nM
  TGI: > 100000 nM
SK-OV-3 ovarian
  GI50: 407 nM
  TGI: > 100000 nM
SNB-19 CNS
  GI50: 409 nM
  TGI: > 100000 nM
NCI-H522 lung
  GI50: 218 nM
  TGI: 579 nM
MOLT-4 leukemia
  GI50: 511 nM
  TGI: > 100000 nM
HL-60(TB) leukemia
  GI50: 63.3 nM
  TGI: 319 nM
SF-539 CNS
  GI50: 217 nM
RPMI-8226 leukemia
  GI50: 288 nM
  TGI: > 100000 nM
U251 CNS
  GI50: 407 nM
  TGI: > 100000 nM
HCT-15 colon
  GI50: 2640 nM
  TGI: > 100000 nM
LOX IMVI melanoma
  GI50: 345 nM
  TGI: > 100000 nM
T-47D breast
  GI50: > 100000 nM
  TGI: > 100000 nM
TK-10 renal
  GI50: 65200 nM
  TGI: > 100000 nM
OVCAR-5 ovarian
  GI50: 2450 nM
  TGI: > 100000 nM
MALME-3M melanoma
  GI50: > 100000 nM
  TGI: > 100000 nM
SF-268 CNS
  GI50: 511 nM
  TGI: > 100000 nM
KM12 colon
  GI50: 282 nM
  TGI: > 100000 nM
CAKI-1 renal
  GI50: 4620 nM
  TGI: > 100000 nM
UO-31 renal
  GI50: 6720 nM
  TGI: > 100000 nM
RXF 393 renal
  GI50: 381 nM
  TGI: > 100000 nM
NCI-H23 lung
  GI50: 578 nM
  TGI: > 100000 nM
HS 578T breast
  GI50: 648 nM
  TGI: > 100000 nM
HCC-2998 colon
  GI50: 347 nM
  TGI: > 100000 nM
OVCAR-3 ovarian
  GI50: 250 nM
  TGI: 647 nM
UACC-62 melanoma
  GI50: 311 nM
  TGI: > 100000 nM
A498 renal
  GI50: 260 nM
SF-295 CNS
  GI50: 277 nM
  TGI: > 100000 nM
BT-549 breast
  GI50: 245 nM
  TGI: 7280 nM
SNB-75 CNS
  GI50: 321 nM
  TGI: > 100000 nM
MCF7 breast
  GI50: 148 nM
  TGI: > 100000 nM
SK-MEL-2 melanoma
  GI50: 275 nM
  TGI: > 100000 nM
IGROV1 ovarian
  GI50: 510 nM
  TGI: > 100000 nM
UACC-257 melanoma
  GI50: > 100000 nM
  TGI: > 100000 nM
MDA-MB-231 breast
  GI50: 552 nM
  TGI: > 100000 nM
